Like-named read-outs stand apart in the source and are kept apart here.
Columns and labels:
[1] = target: T1, human β3 adrenergic receptor (Homo sapiens, UniProt P13945); test: Functional assay: cAMP production (LANCE) in CHO cells expressing β3 adrenergic receptor; format: cell-based
T1 construct: expressed in transfected cells; host or cells: CHO cells, stably transfected
Method: Chinese hamster ovary (CHO) cells, stably transfected with the cloned β-adrenergic receptor (β1, β2 or β3) are harvested after 3 days of subculturing. Harvesting of cells is done with Enzyme-free Dissociation Media (Specialty Media). Cells are then counted and resuspended in assay buffer (Hank's Balanced salt solution supplemented with 5 mM HEPES, 0.1% BSA) containing a phosphodiesterase inhibitor (IBMX, 0.6 mM). The reaction is initiated by mixing 6,000 cells in 6 μL with 6 μL Alexa Fluor labeled cAMP antibody (LANCE™ kit) which is then added to an assay well containing 12 μL of compound (diluted in assay buffer to 2× final concentration). The reaction proceeds for 30 min at room temperature and is terminated by the addition of 24 μL detection buffer (LANCE™ kit). The assay plate is then incubated for 1 h at room temperature and time-resolved fluorescence measured on a Perkin Elmer Envision reader or equivalent. The unknown cAMP level is determined by comparing fluorescence levels to a cAMP standard curve.
The non-selective, full agonist β-adrenergic ligand isoproterenol is used at all three receptors to determine maximal stimulation. […] Data are analyzed using Microsoft Excel and Graphpad Prism or an internally developed data analysis software package.

rats = conditions: intravenous administration, cited from earlier work
[2] = cAMP production, CHO cells, given as a range, read-out: human β3 functional activity

T1 sequence (P13945 whole entry): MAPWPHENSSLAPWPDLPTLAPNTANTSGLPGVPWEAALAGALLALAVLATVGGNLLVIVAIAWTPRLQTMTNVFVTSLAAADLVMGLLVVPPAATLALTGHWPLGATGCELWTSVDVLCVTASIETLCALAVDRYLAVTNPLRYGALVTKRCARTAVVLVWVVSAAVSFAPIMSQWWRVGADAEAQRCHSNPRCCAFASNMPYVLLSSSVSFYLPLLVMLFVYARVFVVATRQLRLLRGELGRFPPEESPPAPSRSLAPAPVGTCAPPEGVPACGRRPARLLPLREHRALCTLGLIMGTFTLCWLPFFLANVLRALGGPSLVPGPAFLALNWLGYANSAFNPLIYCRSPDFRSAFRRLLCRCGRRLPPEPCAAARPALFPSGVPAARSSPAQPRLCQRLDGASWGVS

O=C(Nc1ccc(C[C@@H]2CC[C@H]([C@H](O)c3ccccc3)N2)cc1)C1CCc2cccc(=O)n21 (single isomer, unassigned) [Example 102]
EC50 [1, 2]: < 1 nM

Nc1nc2c(s1)CCC2C(=O)Nc1ccc(CC2CCC(C(O)c3ccc(F)cc3)N2)cc1 (single isomer, unassigned) [Example 308]
EC50 ([1]; human β3 functional activity, given as ranges, read-out: Human β3 Functional): 1 to 10 nM

O=C(Nc1ccc(C[C@@H]2CC[C@H]([C@H](O)c3ccccc3)N2)cc1)[C@@H]1CCc2cccc(=O)n21 (single isomer, unassigned) [Example 101]
EC50 [1, 2]: 1 to 10 nM

Cc1nc(CC(=O)Nc2ccc(C[C@@H]3CC[C@H]([C@H](O)c4ccccc4)N3)cc2)c(C)s1 [Example 10]
EC50 ([1]; Table 4, text b832: human β3 functional activity, read-out: Human β3 Binding): 1 to 10 nM

CC(C(=O)Nc1ccc(C[C@@H]2CC[C@H]([C@H](O)c3ccccc3)N2)cc1)n1ccccc1=O (single isomer, unassigned) [Example 203]
EC50 ([1]; Table 5, read-out: Human β3 Functional): 1 to 10 nM

C[C@H](Cc1ccc2c(c1)OC(C(=O)[O-])(C(=O)[O-])O2)NC[C@H](O)c1cccc(Cl)c1.[Na+].[Na+] [CL316243]
bladder capacity (rats; cystometric studies): increases bladder capacity | bladder pressure (rats): reduces bladder pressure
